Data set [1] can be described thus: Cytotoxicity against human FM55M1 cells assessed as reduction in cell viability measured upto 50 uM incubated for 72 hrs by cell titre 96 reagent based plate reader analysis. In kind it is toxicity. Conditions: fm55m1, 72 h.
The target in data set [2] is Human immunodeficiency virus type 1 protease (Human immunodeficiency virus 1) (UniProt Q72874). The data set can be described thus: Inhibition of HIV-1 protease at 10 ug/ml by fluorescence based plate reader assay relative to control. The note with it: dose 10.0 µg/ml.
In data set [3] the test system is Human immunodeficiency virus 1. The data set can be described thus: Anti-retroviral activity against HIV-1 IIIB infected in human MT4 cells assessed as inhibition of viral replication and measured after 5 days by MTT assay. The data set is classed as functional, organism-based. The note with it: Human immunodeficiency virus 1, IIIB, MT4, 120 h. (Formazan colour is commonly taken as a measure of viable cells.)

The nature of data set [4]: Cytotoxicity against human MT4 cells and measured after 5 days by MTT assay. The data set is classed as toxicity, cell-based.

Broadly, the inhibition is the relative decrease from the control value, in per cent. A lower inhibition goes with little suppression. The term IC50 denotes the concentration needed to halve the response being measured.

`C=C1CC[C@@H]2OC(=O)C(C)=C2[C@@H]2[C@@H]1[C@@]13O[C@@]1([C@@H](Cl)[C@@H](C)[C@H]3OC(C)=O)[C@@H](O)[C@@]2(C)O`: in data set [1], the Activity entry was “Non-Toxic”. Moreover, in data set [2], the inhibition turned out to be 63%. For the same compound, the IC50 in data set [3] is 0.028 µM. Also, in data set [4], the IC50 at 5 days came out at 209 µM.

For the compound `C=C1CC[C@]2(O)OC(=O)C(C)=C2[C@@H]2[C@@H]1[C@@]13O[C@@]1(C[C@@H](C)[C@H]3O)[C@H]1O[C@@]21C`, the Activity entry in data set [1] is listed as “Non-Toxic”. In data set [2], this compound returned an inhibition of 75%. For the same compound, the IC50 in data set [3] is 0.0055 µM. In addition, in data set [4], half-maximal inhibition (IC50 at 5 days) required 510 µM.
